Assay results from patent US10421722B2, “Sulfur-containing compounds targeting vesicular acetylcholine transporter” (Washington University, priority 2016, dated 2019).
Read-outs that look alike come from different tables or passages of the source.

Columns and labels:
human VAChT = human VAChT (Homo sapiens (Human), UniProt Q16572); test: VAChT binding, competition against [3H]Vesamicol; settings: oxalate form, expressed human VAChT, mean ± SEM
Procedure: (§1) In vitro binding studies were performed to measure the affinities to the VAChT and σ1 and σ2 receptors. VAChT binding was assayed using membrane homogenate from PC12 cells which overexpress human VAChT.^8 The σ1 and σ2 binding affinities were assayed in […], respectively.
The test compounds were assayed in increments of 10-fold from 0.1 to 10,000 nM concentration. The surfaces of containers were pre-coated with Sigmacote (Sigma-Aldrich, Mo.). Samples containing 200 μg postnuclear supernatant in 200 μL of 110 mM potassium tartrate, 20 mM HEPES (pH 7.4 with KOH), 1 mM dithiothreitol, and 0.02% sodium azide were incubated at 22° C. for 24 h. A volume of 90 μL was filtered in duplicate through GF/F glass fiber filters coated with polyethylenimine and washed. Filter-bound radioactivity was determined by liquid scintillation spectrometry for 10 min per sample. Averaged data were fitted by regression with a rectangular hyperbola to estimate Ki value. All the compounds were independently assayed at least two times.

σ1 receptor = σ1 receptor (Cavia porcellus (Guinea pig), UniProt Q60492); test: σ1 receptor binding, [3H](+)-Pentazocine; settings: for Ki: oxalate form, homogenates of guinea pig brain, mean ± SEM; for Selectivity ratio VAChT/σ1: ratio of Ki values
Procedure: as §1
(§2) Briefly, to measure the σ1 receptor binding affinity, we use guinea pig brain membrane homogenates (˜300 μg protein) tissues as the receptor resource and ˜5 nM [^3H](+)-Pentazocine (34.9 Ci/mmol, Perkin Elmer, Boston, Mass.) as the radioligand. The mixture was incubated in 96-well plates for 90 min at room temperature. Nonspecific binding was determined from samples containing 10 μM of nonradioactive Haloperidol. After 90 min, the mixture was transferred into a 96-well fiberglass filter plate (Millipore, Billerica, Mass.) presoaked with 100 μL of 50 mM Tris-HCl buffer at pH 8.0 for 60 min, followed by addition of 150 μL of ice-cold wash buffer (10 mM Tris-HCl, 150 mM NaCl, pH 7.4). The harvested samples were filtered rapidly and washed with 3×200 μL portions of ice-cold wash buffer, and the filterers were counted by a Wallac 1450 MicroBeta liquid scintillation counter (Perkin-Elmer, Boston, Mass.). […] The mixture was incubated for 120 min at room temperature. Nonspecific binding was determined from samples containing 10 μM of nonradioactive Haloperidol. All other procedures were similar to those described for the σ1 receptor binding assay above. Data from the competitive binding experiments were modeled using nonlinear regression analysis to determine the concentration that inhibits 50% of the specific binding of the radioligand. Competitive binding curves were best fit to a one-site fit and gave pseudo-Hill coefficients of 0.6-1.0. Ki values were calculated using the method of Cheng and Prusoff,^35 then presented as the mean±SEM.

σ2 receptor = σ2 receptor (Rattus norvegicus (Rat), UniProt Q5U3Y7); test: σ2 receptor binding, [3H]DTG; settings: for Ki: oxalate form, homogenates of rat liver; for Selectivity ratio VAChT/σ2: ratio of Ki values
Procedure: In vitro binding studies were performed to measure the affinities to the VAChT and σ1 and σ2 receptors. […]
as §2

[1] = Table 1, read-out: Ki (nM) for VAChT
[2] = Table 2, read-out: Ki (nM) VAChT

Sequence of human VAChT (Q16572 whole entry): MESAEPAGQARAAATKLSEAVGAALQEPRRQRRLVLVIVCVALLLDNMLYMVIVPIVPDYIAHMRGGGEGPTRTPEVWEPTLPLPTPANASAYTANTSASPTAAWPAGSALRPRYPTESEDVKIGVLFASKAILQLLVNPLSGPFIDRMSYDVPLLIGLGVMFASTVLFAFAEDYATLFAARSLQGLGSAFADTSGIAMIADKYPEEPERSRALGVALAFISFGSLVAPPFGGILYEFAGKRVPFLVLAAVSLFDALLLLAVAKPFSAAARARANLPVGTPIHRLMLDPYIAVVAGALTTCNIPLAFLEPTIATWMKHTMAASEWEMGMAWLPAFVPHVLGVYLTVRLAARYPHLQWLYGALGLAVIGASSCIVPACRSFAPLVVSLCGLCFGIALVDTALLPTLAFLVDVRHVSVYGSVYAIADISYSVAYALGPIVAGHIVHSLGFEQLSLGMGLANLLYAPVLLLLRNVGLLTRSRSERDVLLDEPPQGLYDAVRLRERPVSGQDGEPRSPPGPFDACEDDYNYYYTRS
Sequence of σ2 receptor (Q5U3Y7 whole entry): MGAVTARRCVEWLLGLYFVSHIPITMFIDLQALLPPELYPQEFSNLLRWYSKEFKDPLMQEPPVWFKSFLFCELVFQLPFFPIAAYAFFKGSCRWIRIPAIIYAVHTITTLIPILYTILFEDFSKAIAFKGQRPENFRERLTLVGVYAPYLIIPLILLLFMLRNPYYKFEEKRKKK
Sequence of σ1 receptor (Q60492 whole entry): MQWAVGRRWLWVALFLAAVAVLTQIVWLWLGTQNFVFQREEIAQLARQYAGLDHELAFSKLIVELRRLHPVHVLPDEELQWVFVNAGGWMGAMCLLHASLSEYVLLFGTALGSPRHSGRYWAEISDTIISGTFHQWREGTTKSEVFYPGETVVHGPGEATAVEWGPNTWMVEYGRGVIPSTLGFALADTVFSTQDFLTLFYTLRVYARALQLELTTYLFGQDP

Compound	Ki (human VAChT; [1]) [nM]	Ki (σ1 receptor) [nM]	Selectivity ratio VAChT/σ1 (σ1 receptor)	Ki (σ2 receptor) [nM]	Selectivity ratio VAChT/σ2 (σ2 receptor)	Ki (human VAChT; [2]) [nM]	Ki (human VAChT; Table 2, listed as (−)-[18F]9a, read-out: Ki (nM) VAChT) [nM]
O=C(c1ccc(S(=O)(=O)CCCF)cc1)C1CCN(C2Cc3ccccc3CC2O)CC1 (stereo not drawn) [Compound 7, (4-((3-Fluoropropyl)sulfonyl)phenyl)(1-(3-hydroxy-1,2,3,4-tetrahydronaphthalen-2-yl)piperidin-4-yl)methanone]	12.8 ± 0.7	–	–	–	–	–	–
O=C(c1ccc(SCCCF)cc1)C1CCN(C2Cc3ccccc3CC2O)CC1 (single isomer, unassigned; (-)) [(−)-9b]	–	4.1 ± 0.7	2.9	> 1000	>714	1.4	–
O=C(c1ccc(SCCF)cc1)C1CCN([C@@H]2Cc3ccccc3C[C@H]2O)CC1 (single isomer, unassigned) [(−)-[^18F]9a]	–	–	–	–	–	–	2.2
O=C(c1ccc(SCCCF)cc1)C1CCN([C@@H]2Cc3ccccc3C[C@H]2O)CC1 (single isomer, unassigned) [(+)-9b]	–	38.6 ± 7.1	1.9	> 1000	>50	19.9 ± 9.2	–
O=C(c1ccc(SCCF)cc1)C1CCN(C2Cc3ccccc3CC2O)CC1 (single isomer, unassigned; (-)) [(−)-9a]	–	30.8 ± 4.1	13.4	> 1000	>454	2.2	–
CSc1ccc(C(=O)C2CCN(C3Cc4ccccc4CC3O)CC2)cc1 (racemic) [Compound 3, (1-(3-Hydroxy-1,2,3,4-tetrahydronaphthalen-2-yl)piperidin-4-yl)(4-(methylthio)phenyl)methanone]	2.4	17.2 ± 4	7.2	> 1000	>416	–	–
C[S+]([O-])c1ccc(C(=O)C2CCN(C3Cc4ccccc4CC3O)CC2)cc1 (stereo not drawn) [Compound 4, (1-(3-Hydroxy-1,2,3,4-tetrahydronaphthalen-2-yl)piperidin-4-yl)(4-(methylsulfinyl)phenyl)methano-ne]	6.5	–	–	–	–	–	–
O=C(c1ccc(SCCF)cc1)C1CCN([C@@H]2Cc3ccccc3C[C@H]2O)CC1 (single isomer, unassigned) [(+)-9a]	–	14.4 ± 2	1.2	> 1000	>84	11.8 ± 2.7	–
CS(=O)(=O)c1ccc(C(=O)C2CCN(C3Cc4ccccc4CC3O)CC2)cc1 (racemic) [Compound 2, (1-(3-Hydroxy-1,2,3,4-tetrahydronaphthalen-2-yl)piperidin-4-yl)(4 (methylsulfonyl)phenyl)methanone]	5.4	16.5 ± 2.1	3.1	> 1000	>185	–	–

Other lines, results leading:

Ki (human VAChT; [1]) [nM]	Ki (σ1 receptor) [nM]	Selectivity ratio VAChT/σ1 (σ1 receptor)	Ki (σ2 receptor) [nM]	Selectivity ratio VAChT/σ2 (σ2 receptor)	Ki (human VAChT; [2]) [nM]	Ki (human VAChT; Table 2, listed as (−)-[18F]9a, read-out: Ki (nM) VAChT) [nM]	Compound
2.4	16.7 ± 2.1	7.0	> 1000	>416	–	–	O=C(c1ccc(SCCF)cc1)C1CCN(C2Cc3ccccc3CC2O)CC1 (racemic) [Compound 9a, (4-((2-Fluoroethyl)thio)phenyl)(1-(3-hydroxy-1,2,3,4-tetrahydronaphthalen-2-yl)piperidin-4-yl)methanone]
2.3	40.8 ± 4.1	17.7	> 1000	>434	–	–	O=C(c1ccc(SCCCF)cc1)C1CCN(C2Cc3ccccc3CC2O)CC1 (racemic) [Compound 9b, (4-((3-Fluoropropyl)thio)phenyl)(1-(3-hydroxy-1,2,3,4-tetrahydronaphthalen-2-yl)piperidin-4-yl)methanone]
13	–	–	–	–	–	–	O=C(c1ccc(S(=O)(=O)NCCF)cc1)C1CCN(C2Cc3ccccc3CC2O)CC1 (stereo not drawn) [Compound 6b, N-(2-fluoroethyl)-4-(1-(3-hydroxy-1,2,3,4-tetrahydronaphthalen-2-yl)piperidine-4-carbonyl)benzenesulfonamide]
6.3	–	–	–	–	–	–	CNS(=O)(=O)c1ccc(C(=O)C2CCN(C3Cc4ccccc4CC3O)CC2)cc1 (stereo not drawn) [Compound 6a, 4-(1-(3-Hydroxy-1,2,3,4-tetrahydronaphthalen-2-yl)piperidine-4-carbonyl)-N-methylbenzenesulfon-amide]
